From US20230037414A1, “INHIBITORS OF ADRENOMEDULLIN FOR THE TREATMENT OF ACUTE MYELOID LEUKEMIA BY ERADICATING LEUKEMIC STEM CELLS” (INSERM (INSTITUT NATIONAL DE LA SANTÉ ET DE LA RECHERCHE …, priority 2019, published 2023)
pEC50: −log10 of the molar value.

Experiments:
primary AML samples = assay: PDX model of AraC treatment in AML (NSG mice); format: in vivo
Experimental: NSG mice were produced at the Genotoul Anexplo platform at Toulouse (France) using breeders obtained from Charles River Laboratories. Transplanted mice were treated with antibiotic (Baytril) for the duration of the experiment. For experiments assessing the response to chemotherapy in PDX models, mice (6-9 weeks old) were sublethally treated with busulfan (30 mg/kg) 24 hours before injection of leukemic cells. Leukemia samples were thawed in 37° C. water bath, washed in IMDM 20% FBS, and suspended in Hank's Balanced Salt Solution at a final concentration of 1-10×10^6 cells per 200 μL for tail vein injection in NSG mice. Eight to 18 weeks after AML cell transplantation and when mice were engrafted (tested by flow cytometry on peripheral blood or bone marrow aspirates), NSG mice were treated by daily intraperitoneal injection of 60 mg/kg AraC or vehicle (PBS) for 5 days. AraC was kindly provided by the pharmacy of the TUH. Mice were sacrificed at day 8 to harvest human leukemic cells from murine bone marrow. For AML cell lines, 24 hours before injection of leukemic cells mice were treated with busulfan (20 mg/kg). Then cells were thawed and washed as previously described, suspended in HBSS at a final concentration of 2×106 per 200 μL before injection into bloodstream of NSG mice. […] Daily monitoring of mice for symptoms of disease (ruffled coat, hunched back, weakness, and reduced mobility) determined the time of killing for injected animals with signs of distress.
At the end of experiment, NSG mice were humanely killed in accordance with European ethics protocols. […] The number of AML cells/μL peripheral blood and number of AML cells in total cell tumor burden (in bone marrow and spleen) were determined by using CountBright beads (Invitrogen) using described protocol.
Proteins were resolved using 4% to 12% polyacrylamide gel electrophoresis Bis-Tris gels (Life Technology, Carlsbad, Calif.) and electrotransferred to nitrocellulose membranes. […] Quantification of chemiluminescent signals was done with the GeneTools software from Syngene.

MOLM-14 cells = assay: EC50 experiments (MTS cell viability) on MOLM-14 cells FACS-sorted from xenografted mice; format: cell-based; details: Homo sapiens, MOLM-14, 168 h, after one week of in vitro culture
Experimental: The day before experiment, cells were adjusted to 3×10^5 cells/ml final concentration and plated in a 96-well plate (final volume: […]). To measure half-maximal inhibitory concentration (EC50), increased concentrations of AraC or idarubicin were added to the medium. After two days, 20 µl per well of MTS solution (Promega) was added for two hours and then absorbance was recorded at 490 nm with a 96-well plate reader. The doses that decrease cell viability to 50% (EC50) were analyzed Nonlinear regression log [inhibitor] vs. normalized response-variable slope with GraphPad Prism software.

[1] = MOLM-14 shCTR cells from AraC treated mice
[2] = MOLM-14 shCTR cells from vehicle-treated mice

Row | pEC50 (MOLM-14 cells; [1]) | pEC50 (MOLM-14 cells; [2]) | SMILES | percentage of human cells in the bone marrow of mice (primary AML samples; AraC vs PBS treated mice) | levels of secreted ADM in the bone marrow of mice (primary AML samples; bone marrow supernatant, western blot, AraC vs PBS) | percentage of positive blasts for CALCRL (primary AML samples; minimal residual disease after 60 mg/kg/day AraC for 5 days, day 8, 5.6% without AraC) [%]
1 | 5.15 | 5.70 | Nc1ccn([C@@H]2O[C@H](CO)[C@@H](O)[C@@H]2O)c(=O)n1 [AraC, cytarabine] | reduced | reduced | 23
2 | 7.21 | 7.54 | CC(=O)[C@]1(O)Cc2c(O)c3c(c(O)c2[C@@H](O[C@H]2C[C@H](N)[C@H](O)[C@H](C)O2)C1)C(=O)c1ccccc1C3=O [idarubicin] | – | – | –
